The structures appear in SMILES notation. The source made the active and inactive calls. No rule for the calls is given here.

This data set has as its system CCRIS mutagenicity, Ames/micronucleus/aberration tests. In words: CCRIS mutagenicity studies.
Where [1] appears, read: Test System: AMES SALMONELLA TYPHIMURIUM, Strain/Indicator: TA98, Metabolic Activation: NONE, Method: PREINCUBATION
Setting [2] is: Test System: AMES SALMONELLA TYPHIMURIUM, Strain/Indicator: TA98, Metabolic Activation: NONE, Method: STANDARD PLATE.
The mark [3] stands for this setting: Test System: AMES SALMONELLA TYPHIMURIUM, Strain/Indicator: TA98, Metabolic Activation: RAT, LIVER, S-9, AROCLOR 1254, Method: STANDARD PLATE.
The mark [4] stands for this setting: Test System: AMES SALMONELLA TYPHIMURIUM, Strain/Indicator: TA100, Metabolic Activation: NONE, Method: PREINCUBATION
Where [5] appears, read: Test System: AMES SALMONELLA TYPHIMURIUM, Strain/Indicator: TA100, Metabolic Activation: NONE, Method: STANDARD PLATE.
Setting [6] is: Test System: AMES SALMONELLA TYPHIMURIUM, Strain/Indicator: TA100, Metabolic Activation: RAT, LIVER, S-9, AROCLOR 1254, Method: STANDARD PLATE.

For the molecule `CCCOC(=O)c1cc(O)c(O)c(O)c1`, the mutagenic call (End Point: IN VITRO CHROMOSOMAL ABERRATIONS, Test System: CHO CELLS, Metabolic Activation: RAT, LIVER, S-9, AROCLOR 1254) was “inactive; negative”; the mutagenic call (Test System: AMES SALMONELLA TYPHIMURIUM, Strain/Indicator: TA97, Metabolic Activation: NONE, Method: PREINCUBATION) is “inactive; negative”; the mutagenic call (Test System: AMES SALMONELLA TYPHIMURIUM, Strain/Indicator: TA97, Metabolic Activation: S-9, Method: PREINCUBATION) was “inactive; negative”; the mutagenic call under setting [1] is “inactive; negative”; the mutagenic call under setting [2] was “inactive; negative”; the mutagenic call (Test System: AMES SALMONELLA TYPHIMURIUM, Strain/Indicator: TA98, Metabolic Activation: RAT LIVER S-9, Method: PREINCUBATION) is “inactive; negative”. In addition, the mutagenic call under setting [3] was “inactive; negative”; the mutagenic call under setting [4] is “inactive; negative”; the mutagenic call under setting [5] is “inactive; negative”; the mutagenic call (Test System: AMES SALMONELLA TYPHIMURIUM, Strain/Indicator: TA100, Metabolic Activation: RAT LIVER S-9, Method: PREINCUBATION) is “inactive; negative”; the mutagenic call under setting [6] was “inactive; negative”; the mutagenic call (Test System: AMES SALMONELLA TYPHIMURIUM, Strain/Indicator: TA102, Metabolic Activation: NONE, Method: PREINCUBATION) was “inactive; negative”. The mutagenic call by setting is: (Test System: AMES SALMONELLA TYPHIMURIUM, Strain/Indicator: TA102, Metabolic Activation: S-9, Method: PREINCUBATION) “active; positive”; (Test System: AMES SALMONELLA TYPHIMURIUM, Strain/Indicator: TA1535, Metabolic Activation: NONE, Method: STANDARD PLATE) “inactive; negative”; (Test System: AMES SALMONELLA TYPHIMURIUM, Strain/Indicator: TA1535, Metabolic Activation: RAT, LIVER, S-9, AROCLOR 1254, Method: STANDARD PLATE) “inactive; negative”; (Test System: AMES SALMONELLA TYPHIMURIUM, Strain/Indicator: TA1537, Metabolic Activation: NONE, Method: STANDARD PLATE) “inactive; negative”; (Test System: AMES SALMONELLA TYPHIMURIUM, Strain/Indicator: TA1537, Metabolic Activation: RAT, LIVER, S-9, AROCLOR 1254, Method: STANDARD PLATE) “inactive; negative”; (Test System: AMES SALMONELLA TYPHIMURIUM, Strain/Indicator: TA1538, Metabolic Activation: NONE, Method: STANDARD PLATE) “inactive; negative”. Further, the mutagenic call (Test System: AMES SALMONELLA TYPHIMURIUM, Strain/Indicator: TA1538, Metabolic Activation: RAT, LIVER, S-9, AROCLOR 1254, Method: STANDARD PLATE) was “inactive; negative”; the mutagenic call (Test System: Ames Salmonella typhimurium, Strain/Indicator: TA102, Metabolic Activation: None, Method: Preincubation) was “inactive; negative”; the mutagenic call (Test System: Ames Salmonella typhimurium, Strain/Indicator: TA102, Metabolic Activation: Rat, Liver, S-9, Aroclor 1254 in 0.154 M KCl, Method: Preincubation) was “inactive; negative”; the mutagenic call (Test System: E. COLI, Strain/Indicator: WP2, Metabolic Activation: NONE, Method: STANDARD PLATE) was “inactive; negative”; the mutagenic call (Test System: E. COLI, Strain/Indicator: WP2, Metabolic Activation: RAT, LIVER, S-9, AROCLOR 1254, Method: STANDARD PLATE) was “inactive; negative”.

`NC(=O)c1cnccn1`: the mutagenic call reads like this: (Test System: AMES SALMONELLA TYPHIMURIUM, Strain/Indicator: TA98, Metabolic Activation: HAMSTER, LIVER, S-9, AROCLOR 1254 (10%), Method: PREINCUBATION) “inactive; negative”; under setting [1], “inactive; negative”; (Test System: AMES SALMONELLA TYPHIMURIUM, Strain/Indicator: TA98, Metabolic Activation: RAT, LIVER, S-9, AROCLOR 1254 (10%), Method: PREINCUBATION) “inactive; negative”; (Test System: AMES SALMONELLA TYPHIMURIUM, Strain/Indicator: TA100, Metabolic Activation: HAMSTER, LIVER, S-9, AROCLOR 1254 (10%), Method: PREINCUBATION) “inactive; negative”; under setting [4], “inactive; negative”; (Test System: AMES SALMONELLA TYPHIMURIUM, Strain/Indicator: TA100, Metabolic Activation: RAT, LIVER, S-9, AROCLOR 1254 (10%), Method: PREINCUBATION) “inactive; negative”. Further, the mutagenic call reads like this: (Test System: AMES SALMONELLA TYPHIMURIUM, Strain/Indicator: TA1535, Metabolic Activation: HAMSTER, LIVER, S-9, AROCLOR 1254 (10%), Method: PREINCUBATION) “inactive; negative”; (Test System: AMES SALMONELLA TYPHIMURIUM, Strain/Indicator: TA1535, Metabolic Activation: NONE, Method: PREINCUBATION) “inactive; negative”; (Test System: AMES SALMONELLA TYPHIMURIUM, Strain/Indicator: TA1535, Metabolic Activation: RAT, LIVER, S-9, AROCLOR 1254 (10%), Method: PREINCUBATION) “inactive; negative”; (Test System: AMES SALMONELLA TYPHIMURIUM, Strain/Indicator: TA1537, Metabolic Activation: HAMSTER, LIVER, S-9, AROCLOR 1254 (10%), Method: PREINCUBATION) “inactive; negative”; (Test System: AMES SALMONELLA TYPHIMURIUM, Strain/Indicator: TA1537, Metabolic Activation: NONE, Method: PREINCUBATION) “inactive; negative”; (Test System: AMES SALMONELLA TYPHIMURIUM, Strain/Indicator: TA1537, Metabolic Activation: RAT, LIVER, S-9, AROCLOR 1254 (10%), Method: PREINCUBATION) “inactive; negative”.

In the case of `Fc1ccc2c3c(ccc2c1)-c1cccc2cccc-3c12`, the mutagenic call reads like this: (Test System: AMES SALMONELLA TYPHIMURIUM, Strain/Indicator: TA97A, Metabolic Activation: RAT, LIVER, S-9, AROCLOR 1254, Method: PREINCUBATION) “active; positive”; (Test System: AMES SALMONELLA TYPHIMURIUM, Strain/Indicator: TA98, Metabolic Activation: RAT, LIVER, S-9, AROCLOR 1254, Method: PREINCUBATION) “active; positive”; (Test System: AMES SALMONELLA TYPHIMURIUM, Strain/Indicator: TA100, Metabolic Activation: RAT, LIVER, S-9, AROCLOR 1254, Method: PREINCUBATION) “active; positive”.

As to `CCc1cccc(CC)c1N`, the mutagenic call is “inactive; negative” under setting [1]; “inactive; negative” under setting [2]; “inactive; negative” (Test System: AMES SALMONELLA TYPHIMURIUM, Strain/Indicator: TA98, Metabolic Activation: RAT, LIVER, MICROSOMES, PHENOBARBITAL, Method: PREINCUBATION); “active; positive” under setting [3]; “inactive; negative” under setting [4]; “inactive; negative” under setting [5]. In addition, the mutagenic call was “inactive; negative” (Test System: AMES SALMONELLA TYPHIMURIUM, Strain/Indicator: TA100, Metabolic Activation: RAT, LIVER, MICROSOMES, PHENOBARBITAL, Method: PREINCUBATION); “active; positive” under setting [6]; “active; positive” (Test System: Ames Salmonella typhimurium, Strain/Indicator: TA97, Metabolic Activation: None, Method: Suspension); “active; positive” (Test System: Ames Salmonella typhimurium, Strain/Indicator: TA98, Metabolic Activation: None, Method: Suspension); “inactive; negative” (Test System: Ames Salmonella typhimurium, Strain/Indicator: TA100, Metabolic Activation: None, Method: Preincubation); “inactive; negative” (Test System: Ames Salmonella typhimurium, Strain/Indicator: TA1535, Metabolic Activation: None, Method: Suspension). Also, the mutagenic call reads like this: (Test System: Ames Salmonella typhimurium, Strain/Indicator: TA1537, Metabolic Activation: None, Method: Suspension) “inactive; negative”; (Test System: Ames Salmonella typhimurium, Strain/Indicator: TA1538, Metabolic Activation: None, Method: Suspension) “active; positive (weak response; no dose response)”.

`O=c1oc2cccc3ccc4c5ccccc5cc1c4c32`: the mutagenic call was “inactive; negative” under setting [2], “active; positive” under setting [3] and “active; positive” under setting [6].

Source of the values: PubChem BioAssay AID1259407 (Chemical Carcinogenesis Research Information System (CCRIS), 2018).
